From patent publication US10183024B2, “Crystalline forms of ibrutinib” (Apotex Inc., priority 2016, dated 2019)

Legend:
[1] = PXRD study of crystal form stability on storage in stability chambers; assay type: physicochemical
Protocol: Ibrutinib Form APO-I can be characterized by a PXRD diffractogram comprising, among other peaks, characteristic peaks, expressed in degrees 2θ (±0.2°), at 5.1°, 7.6° and 12.5°. Preferably, the PXRD diffractogram further comprises at least three peaks, expressed in degrees 2θ (±0.2°), selected from the group consisting of: 10.1°, 11.1°, 14.2°, 15.4°, 16.3°, 17.3° and 18.7°. More preferably, the PXRD diffractogram further comprises peaks, expressed in degrees 2θ (±0.2°), at 10.1°, 11.1°, 14.2°, 15.4°, 16.3°, 17.3° and 18.7°. PXRD studies of capped and uncapped samples of Ibrutinib Form APO-I have shown that this crystal form is stable following storage in stability chambers maintained at 27° C./60% RH for at least 31 days and 40° C./75% RH for at least 21 days.
Ibrutinib Form APO-II can be characterized by a PXRD diffractogram comprising, among other peaks, characteristic peaks, expressed in degrees 2θ (±0.2°), at 6.4°, 10.1° and 12.8°. Preferably, the PXRD diffractogram further comprises at least three peaks, expressed in degrees 2θ (±0.2°), selected from the group consisting of: 13.8°, 17.6°, 18.4°, 19.4°, 20.4°, 21.0°, 21.7°, 23.2°, 24.1° and 24.9°. More preferably, the PXRD diffractogram further comprises peaks, expressed in degrees 2θ (±0.2°), at 13.8°, 17.6°, 18.4°, 19.4°, 20.4°, 21.0°, 21.7°, 23.2°, 24.1° and 24.9°. PXRD studies of capped and uncapped samples of Ibrutinib Form APO-II have shown that this crystal form is stable following storage in stability chambers maintained at 27° C./60% RH and 40° C./75% RH for at least 25 days.
Ibrutinib Form APO-IV can be characterized by a PXRD diffractogram comprising, among other peaks, characteristic peaks, expressed in degrees 2θ (±0.2°), at 6.4°, 10.2° and 12.9°. Preferably, the PXRD diffractogram further comprises at least three peaks, expressed in degrees 2θ (±0.2°), selected from the group consisting of: 13.9°, 17.7°, 18.4°, 19.4°, 20.5°, 21.3°, 21.8°, 23.2°, 24.2° and 24.9°. More preferably, the PXRD diffractogram further comprises peaks, expressed in degrees 2θ (±0.2°), at 13.9°, 17.7°, 18.4°, 19.4°, 20.5°, 21.3°, 21.8°, 23.2°, 24.2° and 24.9°. PXRD studies of uncapped samples of Ibrutinib Form APO-IV have shown that this crystal form is stable following storage in a stability chambers maintained at 40° C./75% RH for at least 11 months.
Data were acquired on a PANanalytical X-Pert Pro MPD diffractometer with fixed divergence slits and an X'Celerator RTMS detector. The diffractometer was configured in Bragg-Brentano geometry; data was collected over a 2-theta range of 3° to 40° using CuKα radiation at a power of 40 mA and 45 kV. CuKβ radiation was removed using a divergent beam nickel filter. A step size of 0.017° was used. Samples were rotated to reduce preferred orientation effects. Samples were lightly ground prior to analysis.

[2] = cited from earlier work
[3] = 27° C./60% RH, capped and uncapped samples
[4] = 40° C./75% RH, capped and uncapped samples

crystal form stable following storage (PXRD) [1, 3] | crystal form stable following storage (PXRD) [1, 4] | Structure (SMILES) | further results
at least 25 days | at least 25 days | C=CC(=O)N1CCCC(n2nc(-c3ccc(Oc4ccccc4)cc3)c3c(N)ncnc32)C1 (stereo not shown) [Form APO-II] | –
– | – | C=CC(=O)N1CCCC(n2nc(-c3ccc(Oc4ccccc4)cc3)c3c(N)ncnc32)C1 (stereo not shown) [Form APO-IV] | crystal form stable following storage (PXRD) ([1]; 40° C./75% RH, uncapped samples): at least 11 months
at least 31 days | at least 21 days | C=CC(=O)N1CCCC(n2nc(-c3ccc(Oc4ccccc4)cc3)c3c(N)ncnc32)C1 (stereo not shown) [Form APO-I] | –
– | – | C=CC(=O)N1CCCC(n2nc(-c3ccc(Oc4ccccc4)cc3)c3c(N)ncnc32)C1 (stereo not shown) [Form A] | solubility ([2]; drug substance in IMBRUVICA, per AusPAR): pH dependent solubility
– | – | C=CC(=O)N1CCCC(n2nc(-c3ccc(Oc4ccccc4)cc3)c3c(N)ncnc32)C1 (stereo not shown) [Form B] | aqueous solubility ([2]; reported for other anhydrous forms): low aqueous solubility
